Experimental data from the supplement of paper PMC5908809.

What was measured:
[1] = system: KAI3 (IL-2 2.5 ng/mL); assay: percent inhibition of viability; higher = more inhibition; details: 72 h
[2] = system: normal primary NK cells, pool 2 (3 donors) (IL-2 2.5 ng/mL); assay: as above; details: 72 h
[3] = system: normal primary NK cells, pool 1 (3 donors), resting (IL-2 0 ng/mL); assay: as above; details: 72 h
[4] = system: IMC-1 (IL-2 20 ng/mL); assay: as above; details: 72 h
[5] = system: NK-YS (IL-2 2.5 ng/mL); assay: as above; details: 72 h
[6] = system: NK-92 (IL-2 2.5 ng/mL); assay: as above; details: 72 h
[7] = system: normal primary NK cells, pool 3 (3 donors) (IL-2 2.5 ng/mL); assay: as above; details: 72 h
[8] = system: DERL-7 (IL-2 2.5 ng/mL); assay: as above; details: 72 h
[9] = system: normal primary NK cells, pool 1 (3 donors) (IL-2 2.5 ng/mL); assay: as above; details: 72 h
[10] = system: NKL (IL-2 2.5 ng/mL); assay: as above; details: 72 h
[11] = system: YT (IL-2 2.5 ng/mL); assay: as above; details: 72 h
[12] = system: SNK-6 (IL-2 2.5 ng/mL); assay: as above; details: 72 h
[13] = system: KHYG-1 (IL-2 2.5 ng/mL); assay: as above; details: 72 h
[14] = system: normal NK cells expanded with K562-aAPC; assay: as above; details: 72 h, IL-2 2.5 ng/mL
Method: (§1)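 Drug sensitivity and resistance testing on K562-aAPC-expanded normal NK cells: 5 concentrations (10-fold steps over a 10,000-fold range), 72 h at 37 °C, viability by CellTiter-Glo normalised to DMSO and benzethonium chloride controls; DSS from the fitted curve.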

[15] = system: KAI3 (IL-2 2.5 ng/mL); assay: drug sensitivity score (DSS) (DSS units); higher = more sensitive; extreme values may be limits of the assay; details: 72 h
[16] = system: normal primary NK cells, pool 2 (3 donors) (IL-2 2.5 ng/mL); assay: as above; details: 72 h
[17] = system: normal primary NK cells, pool 1 (3 donors), resting (IL-2 0 ng/mL); assay: as above; details: 72 h
[18] = system: IMC-1 (IL-2 20 ng/mL); assay: as above; details: 72 h
[19] = system: NK-YS (IL-2 2.5 ng/mL); assay: as above; details: 72 h
[20] = system: NK-92 (IL-2 2.5 ng/mL); assay: as above; details: 72 h
[21] = system: normal primary NK cells, pool 3 (3 donors) (IL-2 2.5 ng/mL); assay: as above; details: 72 h
[22] = system: DERL-7 (IL-2 2.5 ng/mL); assay: as above; details: 72 h
[23] = system: normal primary NK cells, pool 1 (3 donors) (IL-2 2.5 ng/mL); assay: as above; details: 72 h
[24] = system: NKL (IL-2 2.5 ng/mL); assay: as above; details: 72 h
[25] = system: YT (IL-2 2.5 ng/mL); assay: as above; details: 72 h
[26] = system: SNK-6 (IL-2 2.5 ng/mL); assay: as above; details: 72 h
[27] = system: KHYG-1 (IL-2 2.5 ng/mL); assay: as above; details: 72 h
[28] = system: normal NK cells expanded with K562-aAPC; assay: as above; details: 72 h; IL-2 2.5 ng/mL
Method: as §1

Nc1nc(N)c2nc(-c3cccc(O)c3)c(-c3cccc(O)c3)nc2n1 [TG100-115] (max concentration tested 10000 nM)
percent inhibition of viability [%]
Details	1 nM	10 nM	100 nM	1000 nM	10000 nM
[1]	-5.91	4.12	-4.09	-1.44	13.4
[2]	-11.3	-4.42	12.3	5.35	21.7
[3]	0.41	-21.8	-6.01	-19	16.1
[4]	-0.94	5.84	4.32	14.9	34.2
[5]	-1.11	-1.59	0.64	4.73	8.38
[6]	-2.65	1.92	7.95	3.09	17.8
[7]	-6.73	-4.4	7.77	-1.79	13.7
[8]	-6.88	-4.08	5.03	-4.31	3.35
[9]	6.61	-12.2	-0.36	-3.46	18.8
[10]	-7.69	-0.08	0.45	6.08	27.7
[11]	1.25	2.49	4.53	4.76	12.3
[12]	0.36	13.3	17.1	53.8	39
[13]	0.48	4.75	4.43	9.36	24.5
[14]	-2.77	-3.08	0.07	6.14	26.9

Details	drug sensitivity score
[15]	0
[16]	1.02
[17]	0.1
[18]	2.97
[19]	0
[20]	0.35
[21]	0.09
[22]	0
[23]	0.36
[24]	2.07
[25]	0
[26]	10.8
[27]	1.47
[28]	2.01

CC(C)(C)c1cc(NC(=O)Nc2ccc(-c3cn4c(n3)sc3cc(OCCN5CCOCC5)ccc34)cc2)no1 [Quizartinib] (max concentration tested 1000 nM)
percent inhibition of viability [%]
Details	0.1 nM	1 nM	10 nM	100 nM	1000 nM
[1]	0.8	-2.84	2.67	15.2	68.6
[2]	-4.07	3.45	0.79	8.48	5.08
[3]	6.94	18.5	11.5	15.2	11.1
[4]	-3.97	-4.91	-0.67	-2.42	-27
[5]	-4.56	-6.94	-2.6	3.09	45.4
[6]	4.94	6.77	3.37	9.08	32.8
[7]	-1.63	14.8	1.27	-1.92	11.7
[8]	4.27	4.47	0.07	4.17	33.4
[9]	-1.34	14.2	4.45	6.54	7.43
[10]	-4.32	-4.59	-3.22	6.3	40.2
[11]	-3.18	-4.77	-2.32	8.06	28.5
[12]	19.5	-15.2	-9.07	-27.8	31.3
[13]	-4.77	-6.69	-1.59	7.07	69.5
[14]	-5.93	-6.07	-5.11	1.78	12

Details	drug sensitivity score
[15]	6.21
[16]	0
[17]	0
[18]	0
[19]	2.8
[20]	2.69
[21]	0.01
[22]	2.22
[23]	0
[24]	3.06
[25]	2.36
[26]	0.72
[27]	4.98
[28]	0.13

C[C@@]1(C(=O)Nc2ccc(F)nc2)CCCN1c1nc(Nc2cc(C3CC3)n[nH]2)c2cccn2n1 (max concentration tested 10000 nM)
percent inhibition of viability [%]
Details	1 nM	10 nM	100 nM	1000 nM	10000 nM
[1]	-1.42	-2.58	4.51	22.4	41.7
[2]	-2.95	-4.83	-5.48	-1.42	10.7
[3]	-9	-4.43	15.4	-2.47	51.6
[4]	1.89	-6.3	0.07	3.22	76.3
[5]	-3.69	-4.66	4.73	65.5	77.1
[6]	1.84	11	7.85	33.8	57.6
[7]	-3.23	-1.9	0.53	7.47	-2.1
[8]	-1.6	5.82	2.68	74.3	60.1
[9]	-6.95	-10	3.68	2.67	12.4
[10]	-16.6	-4.3	-14.1	1.87	-5.96
[11]	3.08	1.72	7.96	25	51.8
[12]	2.3	-11.9	-15.8	57.8	74.8
[13]	-3.05	-5.44	1.8	30.1	70.8
[14]	-9.12	-3.4	-6.53	45.5	42.2

Details	drug sensitivity score
[15]	4.58
[16]	0
[17]	2.52
[18]	4.66
[19]	12.7
[20]	7.43
[21]	0
[22]	13.9
[23]	0.16
[24]	0
[25]	5.62
[26]	10.8
[27]	7.7
[28]	7.77

CC(=O)O[C@H]1C(=O)[C@@]2(C)[C@H]([C@H](OC(=O)c3ccccc3)[C@]3(O)C[C@H](OC(=O)[C@H](O)[C@@H](NC(=O)c4ccccc4)c4ccccc4)C(C)=C1C3(C)C)[C@]1(OC(C)=O)CO[C@@H]1C[C@@H]2O [Paclitaxel] (max concentration tested 1000 nM)
percent inhibition of viability [%]
Details	0.1 nM	1 nM	10 nM	100 nM	1000 nM
[1]	-12.1	9.77	53	60.6	46.1
[2]	-2.11	-0.3	-9.26	1.41	14
[3]	-38.3	-37.4	-2.05	-14	0.96
[4]	-7.88	-0.55	98.5	100	99.5
[5]	-2.51	-5.4	71.3	77.6	64.6
[6]	-18.6	-5.15	11.3	92.6	94
[7]	-12.4	-15.8	-13.3	-0.71	10.2
[8]	2.23	-0.79	99.4	100	99.4
[9]	-14.5	-13.4	-1.12	-4.6	3.64
[10]	-17.5	-11.8	84.1	93.2	87.1
[11]	-2.12	-2.24	82.5	102	93.8
[12]	6.76	-3.54	75.5	79	72.6
[13]	-5.68	-0.23	77.2	106	99.2
[14]	0.76	-4.63	3.65	56.1	55.1

Details	drug sensitivity score
[15]	18.9
[16]	0.27
[17]	0
[18]	30.2
[19]	22.8
[20]	18.8
[21]	0
[22]	30.3
[23]	0
[24]	26.6
[25]	27.5
[26]	23.7
[27]	26.9
[28]	10.8
